The conditions of series [1]: 40° C./75% RH, according to U.S. Pat. No. 8,222,201 (WO 2010/059733), cited from earlier work.
Series [2] in a line: Stability tests: solid stored in open vials at 40° C./75% RH, purity by HPLC. Particulars: for Normalised purity: 40° C./75% RH, open vial. Type of series: physicochemical. The procedure: The purity of solid samples was measured in area percentage by HPLC analysis using the method reported below:
Approximately 10 mg of material was placed in each vial (ea. 1.5 mL, open, clear glass vial).
Three vials were placed into a beaker which was then stored in a sealed desiccator containing a sodium chloride solution which keeps a constant 75% RH. The desiccator was placed into an oven at 40° C.
One vial at a time was taken out after 7 days, 14 days and 1 month and analysed.
Ovens were temperature monitored using calibrated thermometers with min and max temperatures recorded throughout the stability study.

Read-outs that look alike come from different tables or passages of the source. Peptide text beside a SMILES is read from it.

Regarding `C[C@@H]1NC(=O)[C@@H]2CCCN2C(=O)[C@H](CC(N)=O)NC(=O)[C@@H]2CSSC[C@H](N)C(=O)N[C@H]3CSSC[C@H](NC1=O)C(=O)N[C@@H]([C@@H](C)O)C(=O)NCC(=O)N[C@H](C(=O)N[C@@H](Cc1ccc(O)cc1)C(=O)O)CSSC[C@H](NC(=O)[C@H](Cc1ccc(O)cc1)NC(=O)[C@H](CCC(=O)O)NC3=O)C(=O)N2` [Form Alpha, Linaclotide] (HELM PEPTIDE1{C.C.E.Y.C.C.N.P.A.C.T.G.C.Y}$PEPTIDE1,PEPTIDE1,1:R3-6:R3|PEPTIDE1,PEPTIDE1,2:R3-10:R3|PEPTIDE1,PEPTIDE1,5:R3-13:R3$$$V2.0), the Normalised purity in series [1] (Day 7) is 100%; in series [1] (Day 14) it was 94.8%; in series [1] (Month 1), 91.9%.
As for `C[C@@H]1NC(=O)[C@@H]2CCCN2C(=O)[C@H](CC(N)=O)NC(=O)[C@@H]2CSSC[C@H](N)C(=O)N[C@H]3CSSC[C@H](NC1=O)C(=O)N[C@@H]([C@@H](C)O)C(=O)NCC(=O)N[C@H](C(=O)N[C@@H](Cc1ccc(O)cc1)C(=O)O)CSSC[C@H](NC(=O)[C@H](Cc1ccc(O)cc1)NC(=O)[C@H](CCC(=O)O)NC3=O)C(=O)N2` [Form II, Linaclotide] (HELM PEPTIDE1{C.C.E.Y.C.C.N.P.A.C.T.G.C.Y}$PEPTIDE1,PEPTIDE1,1:R3-6:R3|PEPTIDE1,PEPTIDE1,2:R3-10:R3|PEPTIDE1,PEPTIDE1,5:R3-13:R3$$$V2.0), the Normalised purity was found to be 100% in series [2] (Day 7), 100% in series [2] (Day 14) and 98.9% in series [2] (Month 1). For the same compound, in series [2] (open atmosphere of 75% RH and 40° C.), the “Susceptibility to degradation (chemical stability) compared with form alpha” value is listed as “less susceptible to degradation than form alpha”.
